Source: patent US20140120232A1, “ACID TASTE/ACID SMELL-REDUCING AGENT” (T. HASEGAWA CO., LTD., priority 2011, published 2014)

Assay: Sensory evaluation of Vermont drink containing the agent
Conditions: ten panels
How it was run: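 Tridecadienal or tridecatrienal isomers added at various concentrations to a Vermont-flavoured drink (apple-cider vinegar, honey, liquid sugar, citric acid, trisodium citrate, 100 mL total). Ten panelists assessed acid taste/acid smell and aldehyde-type off-odour, and the concentration giving the best acid taste/smell quality was selected.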

CCCCC/C=C\C/C=C/C=C/C=O [(E,E,Z)-2,4,7-tridecatrienal]
A: number of panels, acid taste/acid smell extreme and cause irritation (0.005 ppt): 10
B: number of panels, acid taste/acid smell slightly strong and slightly cause irritation (0.005 ppt): 0
C: number of panels, acid taste/acid smell slightly unpleasant (0.005 ppt): 0
Flavor judgment: number of panels who judged acid taste/acid smell quality the highest (0.005 ppt): 0
N: number of panels, irritation of acid reduced to give a mild acid taste (0.005 ppt): 0
X: number of panels, acid taste reduced but piercing odor characteristic to aldehydes unpleasant (0.005 ppt): 0
A: number of panels, acid taste/acid smell extreme and cause irritation (0.02 ppt): 10
B: number of panels, acid taste/acid smell slightly strong and slightly cause irritation (0.02 ppt): 0
C: number of panels, acid taste/acid smell slightly unpleasant (0.02 ppt): 0
Flavor judgment: number of panels who judged acid taste/acid smell quality the highest (0.02 ppt): 0
N: number of panels, irritation of acid reduced to give a mild acid taste (0.02 ppt): 0
X: number of panels, acid taste reduced but piercing odor characteristic to aldehydes unpleasant (0.02 ppt): 0
A: number of panels, acid taste/acid smell extreme and cause irritation (0.1 ppt): 10
B: number of panels, acid taste/acid smell slightly strong and slightly cause irritation (0.1 ppt): 0
C: number of panels, acid taste/acid smell slightly unpleasant (0.1 ppt): 0
Flavor judgment: number of panels who judged acid taste/acid smell quality the highest (0.1 ppt): 0
N: number of panels, irritation of acid reduced to give a mild acid taste (0.1 ppt): 0
X: number of panels, acid taste reduced but piercing odor characteristic to aldehydes unpleasant (0.1 ppt): 0
A: number of panels, acid taste/acid smell extreme and cause irritation (0.2 ppt): 8
B: number of panels, acid taste/acid smell slightly strong and slightly cause irritation (0.2 ppt): 2
C: number of panels, acid taste/acid smell slightly unpleasant (0.2 ppt): 0
Flavor judgment: number of panels who judged acid taste/acid smell quality the highest (0.2 ppt): 0
N: number of panels, irritation of acid reduced to give a mild acid taste (0.2 ppt): 0
X: number of panels, acid taste reduced but piercing odor characteristic to aldehydes unpleasant (0.2 ppt): 0
A: number of panels, acid taste/acid smell extreme and cause irritation (0.5 ppt): 7
B: number of panels, acid taste/acid smell slightly strong and slightly cause irritation (0.5 ppt): 2
C: number of panels, acid taste/acid smell slightly unpleasant (0.5 ppt): 1
Flavor judgment: number of panels who judged acid taste/acid smell quality the highest (0.5 ppt): 0
N: number of panels, irritation of acid reduced to give a mild acid taste (0.5 ppt): 0
X: number of panels, acid taste reduced but piercing odor characteristic to aldehydes unpleasant (0.5 ppt): 0
A: number of panels, acid taste/acid smell extreme and cause irritation (1 ppb): 0
B: number of panels, acid taste/acid smell slightly strong and slightly cause irritation (1 ppb): 0
C: number of panels, acid taste/acid smell slightly unpleasant (1 ppb): 3
Flavor judgment: number of panels who judged acid taste/acid smell quality the highest (1 ppb): 0
N: number of panels, irritation of acid reduced to give a mild acid taste (1 ppb): 4
X: number of panels, acid taste reduced but piercing odor characteristic to aldehydes unpleasant (1 ppb): 3
A: number of panels, acid taste/acid smell extreme and cause irritation (1 ppt): 0
B: number of panels, acid taste/acid smell slightly strong and slightly cause irritation (1 ppt): 5
C: number of panels, acid taste/acid smell slightly unpleasant (1 ppt): 4
Flavor judgment: number of panels who judged acid taste/acid smell quality the highest (1 ppt): 0
N: number of panels, irritation of acid reduced to give a mild acid taste (1 ppt): 1
X: number of panels, acid taste reduced but piercing odor characteristic to aldehydes unpleasant (1 ppt): 0
A: number of panels, acid taste/acid smell extreme and cause irritation (5 ppt): 0
B: number of panels, acid taste/acid smell slightly strong and slightly cause irritation (5 ppt): 2
C: number of panels, acid taste/acid smell slightly unpleasant (5 ppt): 3
Flavor judgment: number of panels who judged acid taste/acid smell quality the highest (5 ppt): 3
N: number of panels, irritation of acid reduced to give a mild acid taste (5 ppt): 5
X: number of panels, acid taste reduced but piercing odor characteristic to aldehydes unpleasant (5 ppt): 0
A: number of panels, acid taste/acid smell extreme and cause irritation (10 ppb): 0
B: number of panels, acid taste/acid smell slightly strong and slightly cause irritation (10 ppb): 0
C: number of panels, acid taste/acid smell slightly unpleasant (10 ppb): 2
Flavor judgment: number of panels who judged acid taste/acid smell quality the highest (10 ppb): 0
N: number of panels, irritation of acid reduced to give a mild acid taste (10 ppb): 2
X: number of panels, acid taste reduced but piercing odor characteristic to aldehydes unpleasant (10 ppb): 6
A: number of panels, acid taste/acid smell extreme and cause irritation (20 ppt): 0
B: number of panels, acid taste/acid smell slightly strong and slightly cause irritation (20 ppt): 0
C: number of panels, acid taste/acid smell slightly unpleasant (20 ppt): 4
Flavor judgment: number of panels who judged acid taste/acid smell quality the highest (20 ppt): 4
N: number of panels, irritation of acid reduced to give a mild acid taste (20 ppt): 6
X: number of panels, acid taste reduced but piercing odor characteristic to aldehydes unpleasant (20 ppt): 0
A: number of panels, acid taste/acid smell extreme and cause irritation (50 ppb): 0
B: number of panels, acid taste/acid smell slightly strong and slightly cause irritation (50 ppb): 0
C: number of panels, acid taste/acid smell slightly unpleasant (50 ppb): 0
Flavor judgment: number of panels who judged acid taste/acid smell quality the highest (50 ppb): 0
N: number of panels, irritation of acid reduced to give a mild acid taste (50 ppb): 2
X: number of panels, acid taste reduced but piercing odor characteristic to aldehydes unpleasant (50 ppb): 8
A: number of panels, acid taste/acid smell extreme and cause irritation (100 ppt): 0
B: number of panels, acid taste/acid smell slightly strong and slightly cause irritation (100 ppt): 0
C: number of panels, acid taste/acid smell slightly unpleasant (100 ppt): 3
Flavor judgment: number of panels who judged acid taste/acid smell quality the highest (100 ppt): 3
N: number of panels, irritation of acid reduced to give a mild acid taste (100 ppt): 7
X: number of panels, acid taste reduced but piercing odor characteristic to aldehydes unpleasant (100 ppt): 0
A: number of panels, acid taste/acid smell extreme and cause irritation (500 ppt): 0
B: number of panels, acid taste/acid smell slightly strong and slightly cause irritation (500 ppt): 0
C: number of panels, acid taste/acid smell slightly unpleasant (500 ppt): 4
Flavor judgment: number of panels who judged acid taste/acid smell quality the highest (500 ppt): 0
N: number of panels, irritation of acid reduced to give a mild acid taste (500 ppt): 4
X: number of panels, acid taste reduced but piercing odor characteristic to aldehydes unpleasant (500 ppt): 2
